Test results as given in patent US20120289501A1, “Benzene-fused 6-membered oxygen-containing heterocyclic derivatives of bicyclic heteroaryls” (NOVARTIS AG, priority 2009, published 2012).

Molecular target: IGF1R (Homo sapiens, UniProt P08069)
Experiment: Cellular IGF-1R assay: inhibition of IGF1R phosphorylation in transduced Hek293 cells, capture ELISA (MSD)
Assay type: cell-based
Design: Hek293 cells transduced with the corresponding receptors; expressed in transfected cells; host or cells: Hek293 (Hek293-IGF1R)
Protocol: In this assay the activity of the compounds of the invention against Insulin-like growth factor I (IGF-1) induced autophosphorylation of the IGF-IR is determined. The assay is conducted as follows: Compound-mediated inhibition of IGF1R and INSR phosphorylation in Hek293 cells transduced with the corresponding receptors is assessed in a capture ELISA format using the MSD (Meso Scale Discovery) platform. Briefly, 30′000 cells washed and diluted in starvation medium (DMEM high glucose supplemented with 0.1% BSA) are seeded in 90 μL per well into 96-well plates pre-coated with poly-D-lysine (0.1 mg/mL in PBS/0). After 24 h incubation at 37° C. and 5% CO2, dose-response effects are determined with 3-fold serial compound dilutions, starting at 10 μM. The final vehicle concentration is 0.1% DMSO in all wells. Following pre-incubation with compounds for 1 h, receptor phosphorylation is triggered by a 10 min exposure to 1.0 ng/μL IGF for Hek293-IGF1R cells, and 5.0 ng/μL insulin for Hek293-InsR cells. Cell lysis is achieved by addition of 80 μL MSD lysis buffer per aspirated well, incubation on ice for 20 min, and a freeze-thaw cycle. Target phosphorylation is then assessed by transferring volumes corresponding to approx. 6 μg Hek293-IGF1R or 0.6 μg Hek293-InsR lysates to MSD assay plates pre-coated with total-IGF1R or total-InsR Abs, respectively. After incubation for 2 h at rt, wells are exposed for 1 hr to a rabbit monoclonal antibody (CST #3024, 1:1000) detecting pIGF1R(Tyr1135/1136) as well as pINSR(Tyr1150/1151). Immune complexes are detected by a SULFO-Tag™-coupled anti-rabbit IgG antibody in the presence of 150 μL MSD read-buffer. Light emission at 620 nm triggered by application of electric current is recorded on a MSD SectorImager 6000. Acquired raw data (mean Ru-ECL units) are processed in an Excel analysis template. The plate blank (MSD lysis buffer) is subtracted from all data points. The effect of a particular test compound concentration on receptor phosphorylation is expressed relative to the window defined by ligand-stimulated vs unstimulated control cells (set as 100%). IC50 values [nM] are determined using 4-parametric curve-fitting (XLfit software, V4.3.2). Alternatively, the assay can be conducted with a slightly different format; Compound-mediated inhibition of IGF-1R and InsR phosphorylation in HEK293 cells overexpressing the corresponding receptors were assessed by quantitative Western blot using an Odyssey infrared imager as readout.
Compound-mediated inhibition of IGF1R and INSR phosphorylation in Hek293 cells transduced with the corresponding receptors is assessed in a capture ELISA format using the MSD (Meso Scale Discovery) platform. Briefly, 30′000 cells washed and diluted in starvation medium (DMEM high glucose supplemented with 0.1% BSA) are seeded in 90 μL per well into 96-well plates pre-coated with poly-D-lysine (0.1 mg/mL in PBS/O). After 24 h incubation at 37° C. and 5% CO2, dose-response effects are determined with 3-fold serial compound dilutions, starting at 10 μM. The final vehicle concentration is 0.1% DMSO in all wells. Following pre-incubation with compounds for 1 h, receptor phosphorylation is triggered by a 10 min exposure to 1.0 ng/μL IGF for Hek293-IGF1R cells, and 5.0 ng/μL insulin for Hek293-InsR cells. Cell lysis is achieved by addition of 80 μL MSD lysis buffer per aspirated well, incubation on ice for 20 min, and a freeze-thaw cycle. Target phosphorylation is then assessed by transferring volumes corresponding to approx. 6 μg Hek293-IGF1R or 0.6 μg Hek293-lnsR lysates to MSD assay plates pre-coated with total-IGF1R or total-lnsR Abs, respectively. After incubation for 2 h at rt, wells are exposed for 1 hr to a rabbit monoclonal antibody (CST #3024, 1:1000) detecting pIGF1R(Tyr1135/1136) as well as pINSR(Tyr1150/1151). Immune complexes are detected by a SULFO-Tag™-coupled anti-rabbit IgG antibody in the presence of 150 μL MSD read-buffer. […]

Chain of IGF1R (P08069 31-1367): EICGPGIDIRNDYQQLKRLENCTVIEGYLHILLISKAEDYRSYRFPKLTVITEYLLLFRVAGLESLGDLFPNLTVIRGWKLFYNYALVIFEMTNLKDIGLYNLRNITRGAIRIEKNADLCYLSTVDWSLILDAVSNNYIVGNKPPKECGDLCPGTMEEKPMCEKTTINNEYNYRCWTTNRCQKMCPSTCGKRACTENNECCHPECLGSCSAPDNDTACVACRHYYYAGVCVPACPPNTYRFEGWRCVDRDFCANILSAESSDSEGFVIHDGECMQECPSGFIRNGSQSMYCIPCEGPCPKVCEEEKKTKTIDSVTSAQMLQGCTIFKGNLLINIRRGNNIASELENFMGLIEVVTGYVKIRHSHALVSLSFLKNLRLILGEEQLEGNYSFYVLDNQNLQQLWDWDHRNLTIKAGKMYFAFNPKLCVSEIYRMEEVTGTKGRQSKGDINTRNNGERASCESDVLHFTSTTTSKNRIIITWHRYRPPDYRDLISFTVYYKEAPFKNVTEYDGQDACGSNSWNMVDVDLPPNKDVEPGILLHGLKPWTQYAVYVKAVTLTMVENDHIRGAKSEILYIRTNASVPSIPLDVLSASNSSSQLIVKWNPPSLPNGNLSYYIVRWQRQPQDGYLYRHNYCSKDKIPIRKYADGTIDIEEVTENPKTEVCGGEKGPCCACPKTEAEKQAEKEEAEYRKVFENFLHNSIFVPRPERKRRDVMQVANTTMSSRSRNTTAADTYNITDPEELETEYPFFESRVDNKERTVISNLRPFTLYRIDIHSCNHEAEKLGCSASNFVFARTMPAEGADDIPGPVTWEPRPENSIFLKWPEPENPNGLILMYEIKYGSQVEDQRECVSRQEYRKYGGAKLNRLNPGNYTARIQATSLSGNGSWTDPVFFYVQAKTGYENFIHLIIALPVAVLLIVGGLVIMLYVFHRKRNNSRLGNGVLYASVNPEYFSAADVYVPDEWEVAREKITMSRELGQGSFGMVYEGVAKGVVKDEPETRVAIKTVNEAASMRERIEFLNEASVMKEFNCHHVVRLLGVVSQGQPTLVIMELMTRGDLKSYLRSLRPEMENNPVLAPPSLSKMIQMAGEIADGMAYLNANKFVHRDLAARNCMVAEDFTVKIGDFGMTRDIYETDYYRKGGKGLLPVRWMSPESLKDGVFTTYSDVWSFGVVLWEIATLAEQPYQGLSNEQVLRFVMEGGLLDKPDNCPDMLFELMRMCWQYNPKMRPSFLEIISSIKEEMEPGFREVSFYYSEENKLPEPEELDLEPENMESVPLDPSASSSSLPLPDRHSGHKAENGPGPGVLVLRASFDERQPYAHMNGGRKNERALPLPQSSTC

Compound | IC50 [µM]
Nc1ncnc2c1c(-c1ccc3c(c1)OC(C1CCCO1)CC3)cn2C1CC(CN2CCS(=O)(=O)CC2)C1 (single isomer, unassigned) [Example 30, (I)-7-[cis-3-(1,1-Dioxo-1-thiomorpholin-4-ylmethyl)-cyclobutyl]-5-[2-(tetrahydro-furan-2-yl)-chroman-7-yl]-7H-pyrrolo[2,3-d]pyrimidin-4-ylamine] | 0.004 to 0.005
Nc1ncnc2c1c(-c1ccc3c(c1)OC(C1CCCO1)CC3)cn2C1CC(CN2CCS(=O)(=O)CC2)C1 (single isomer, unassigned) [Example 31, (u)-7-[3-(1,1-Dioxo-1-thiomorpholin-4-ylmethyl)-cyclobutyl]-5-[2-(tetrahydro-furan-2-yl)-chroman-7-yl]-7H-pyrrolo[2,3-d]pyrimidin-4-ylamine] | 0.007
Nc1ncnc2c1c(-c1ccc3c(c1)OC(C1CCCO1)CC3)cn2C1CC(O)(CO)C1 (single isomer, unassigned) [Example 32, (I)-(E)-3-{4-Amino-5-[2-(tetrahydro-furan-2-yl)-chroman-7-yl]-pyrrolo[2,3-d]pyrimidin-7-yl}-1-hydroxymethyl-cyclobutanol] | 0.183
Nc1ncnc2c1c(-c1ccc3c(c1)O[C@H](c1ccccc1)CC3)cn2[C@H]1C[C@@H](CO)C1 [Example 11, {cis-3-[4-Amino-5-((S)-2-phenyl-chroman-7-yl)-pyrrolo[2,3-d]pyrimidin-7-yl]-cyclobutyl}-methanol] | 0.019
Nc1ncnc2c1c(-c1ccc3c(c1)O[C@@H](c1ccccc1)CC3)cn2[C@H]1C[C@@H](CO)C1 [Example 12, {cis-3-[4-Amino-5-((R)-2-phenyl-chroman-7-yl)-pyrrolo[2,3-d]pyrimidin-7-yl]-cyclobutyl}-methanol] | 0.055
CC1(O)CC(c2nc(-c3ccc4c(c3)O[C@@H](c3ccccc3)CC4)c3c(N)nccn23)C1 (stereo partly drawn) [Example 19, (R,S)—(Z)-3-[8-Amino-1-(2-phenyl-chroman-7-yl)-imidazo[1,5-a]pyrazin-3-yl]-1-methylcyclobutanol] | 0.158
Nc1ncnc2c1c(-c1ccc3c(c1)OC(c1ccccc1)=CC3)cn2[C@H]1C[C@@H](CN2CCS(=O)(=O)CC2)C1 [Example 20, 7-[cis-3-(1,1-Dioxo-1-thiomorpholin-4-ylmethyl)-cyclobutyl]-5-(2-phenyl-4H-chromen-7-yl)-7H-pyrrolo[2,3-d]pyrimidin-4-ylamine] | 0.179
Nc1ncnc2c1c(-c1ccc3c(c1)O[C@@H](c1ccccc1)CC3)cn2[C@H]1C[C@@H](CN2CCS(=O)(=O)CC2)C1 [Example 24, (R)-7-[cis-3-(1,1-Dioxo-thiomorpholin-4-ylmethyl)-cyclobutyl]-5-(2-phenyl-chroman-7-yl)-7H-pyrrolo[2,3-d]pyrimidin-4-ylamine] | 0.008

Next, values leading:

IC50 [µM] | Compound
0.395 | Nc1ncnc2c1c(-c1ccc3c(c1)OC(C1CCCO1)CC3)cn2C1CC(O)(CO)C1 (single isomer, unassigned) [Example 33, (u)-(E)-3-{4-amino-5-[2-(tetrahydro-furan-2-yl)-chroman-7-yl]-pyrrolo[2,3-d]pyrimidin-7-yl}-1-hydroxymethyl-cyclobutanol]
0.055 | Nc1ncnc2c1c(-c1ccc3c(c1)OC(C1CCCO1)CC3)cn2C1CC(O)(CO)C1 (single isomer, unassigned) [Example 35]
0.044 to 0.143 | Nc1ncnc2c1c(-c1ccc3c(c1)OC(c1ccccc1)CC3)cn2C1CC(O)(CO)C1 (single isomer, unassigned) [Example 41, (Z)-3-K-Amino-5-(2-phenyl-chroman-7-yl)-pyrrolo[2,3-d]pyrimidin-7-yl]-1-hydroxymethyl-cyclobutanol]
0.272 to 0.338 | Nc1ncnc2c1c(-c1ccc3c(c1)OC(c1ccccc1)CC3)cn2C1CC(O)(CO)C1 (single isomer, unassigned) [Example 42, (Z)-3-K-Amino-5-(2-phenyl-chroman-7-yl)-pyrrolo[2,3-d]pyrimidin-7-yl]-1-hydroxymethyl-cyclobutanol]
